Earlier results in patent US20110190220A1, “Use of Defensin Alpha 1 and/or Defensin Alpha 4, as a Marker for Predicting Treatment Response and/or a Relapse in a Patient Suffering form Chronic Myeloid Leukemia” (priority 2008, published 2011).
Where a name gives a salt, the structure may show the parent alone.

Tested on: CML patients

For `Cc1ccc(NC(=O)c2ccc(CN3CCN(C)CC3)cc2)cc1Nc1nccc(-c2cccnc2)n1` [Imatinib, Imatinib mesylate], the “complete or nearly complete cytogenetic remission, share of patients” value (CML patients treated in chronic phase) is listed as “up to 80%” and the “CML patients who are or become resistant to treatment” value (CML patients treated with imatinib) is listed as “about 20%”.
